Earlier results, collected in paper PMC10323144, “Garbage in, garbage out: how reliable training data improved a virtual screening approach against SARS-CoV-2 MPro” (Frontiers in Pharmacology, 2023).

Test system: MPro
Conditions: compiled from peer-reviewed sources (287 compounds) ref the 18 original articles; cited from earlier work

## Cc1[nH]c2ccccc2c1C=NN(C)C(=O)c1ccc2c(c1)OCO2 [LASSBio-1649 (13)]
  Class (MPro activity class): 0 (compounds with IC50 > 20 μM, percentage inhibition <80% at 20 µM or 50 μM, or percentage enzyme inhibition <50% at 10 µM were labelled as INACTIVE)

## O=C(O)CNC(=O)c1ncc(-c2cccc(Cl)c2)cc1O
  Class (MPro activity class): 0 (compounds with IC50 > 20 μM, percentage inhibition <80% at 20 µM or 50 μM, or percentage enzyme inhibition <50% at 10 µM were labelled as INACTIVE)

## CCCOc1cc(Cl)cc(-c2cc(-c3c[nH]c(=O)[nH]c3=O)cn(-c3cccnc3)c2=O)c1 [compound 11]
  Class (MPro activity class): 1 (Compounds with IC50 < 10 µM or with a percentage of enzyme inhibition >50% at 10 µM were labelled as ACTIVE)

## CC(C)OC(=O)[C@H](C)N[P@](=O)(OC[C@H]1O[C@@H](n2ccc(=O)[nH]c2=O)[C@](C)(F)[C@@H]1O)Oc1ccccc1 [Sofosbuvir]
  Class (MPro activity class): 0 (compounds with IC50 > 20 μM, percentage inhibition <80% at 20 µM or 50 μM, or percentage enzyme inhibition <50% at 10 µM were labelled as INACTIVE)

## O=C(O)c1nn(Cc2ccc(Cl)cc2Cl)c2ccccc12 [LONIDAMINE]
  Class (MPro activity class): 0 (compounds with IC50 > 20 μM, percentage inhibition <80% at 20 µM or 50 μM, or percentage enzyme inhibition <50% at 10 µM were labelled as INACTIVE)

## CC(C)C[C@H](NC(=O)[C@H](CCc1ccccc1)NC(=O)CN1CCOCC1)C(=O)N[C@@H](Cc1ccccc1)C(=O)N[C@@H](CC(C)C)C(=O)[C@@]1(C)CO1 [carfilzomib]
  Class (MPro activity class): 0 (compounds with IC50 > 20 μM, percentage inhibition <80% at 20 µM or 50 μM, or percentage enzyme inhibition <50% at 10 µM were labelled as INACTIVE)

## O=C(Cn1nnc2ccccc21)N(Cc1ccsc1)c1ccc(-c2ccccc2)cc1 [17a]
  Class (MPro activity class): 1 (Compounds with IC50 < 10 µM or with a percentage of enzyme inhibition >50% at 10 µM were labelled as ACTIVE)

## COCCOc1cc(Cl)cc(-c2cc(-c3ccccc3C#N)cn(-c3cccnc3)c2=O)c1 [compound 6]
  Class (MPro activity class): 1 (Compounds with IC50 < 10 µM or with a percentage of enzyme inhibition >50% at 10 µM were labelled as ACTIVE)

## Cc1nn(-c2ccccc2)c(Nc2cccc(C(F)(F)F)c2)c1NS(C)(=O)=O [LASSBio-428 (10)]
  Class (MPro activity class): 0 (compounds with IC50 > 20 μM, percentage inhibition <80% at 20 µM or 50 μM, or percentage enzyme inhibition <50% at 10 µM were labelled as INACTIVE)

## TERIFLUNOMIDE
  Class (MPro activity class): 0 (compounds with IC50 > 20 μM, percentage inhibition <80% at 20 µM or 50 μM, or percentage enzyme inhibition <50% at 10 µM were labelled as INACTIVE)

## CCOC(=O)[C@H]1O[C@@H]1C(=O)N[C@@H](CC(C)C)C(=O)NCCC(C)C [Aloxistatin]
  Class (MPro activity class): 0 (compounds with IC50 > 20 μM, percentage inhibition <80% at 20 µM or 50 μM, or percentage enzyme inhibition <50% at 10 µM were labelled as INACTIVE)

## Cc1ccc(NC(=O)Cc2cccc(Cl)c2)cn1 [EDG-MED0da5ad92-13]
  Class (MPro activity class): 0 (compounds with IC50 > 20 μM, percentage inhibition <80% at 20 µM or 50 μM, or percentage enzyme inhibition <50% at 10 µM were labelled as INACTIVE)

## Cc1c(O)cccc1C(=O)N[C@@H](CSc1ccccc1)[C@H](O)CN1C[C@H]2CCCC[C@H]2C[C@H]1C(=O)NC(C)(C)C [Nelfinavir]
  Class (MPro activity class): 0 (compounds with IC50 > 20 μM, percentage inhibition <80% at 20 µM or 50 μM, or percentage enzyme inhibition <50% at 10 µM were labelled as INACTIVE)

## O=C(OCC(O)CO)c1ccccc1Nc1ccnc2cc(Cl)ccc12 (centres unmarked) [GLAFENINE]
  Class (MPro activity class): 0 (compounds with IC50 > 20 μM, percentage inhibition <80% at 20 µM or 50 μM, or percentage enzyme inhibition <50% at 10 µM were labelled as INACTIVE)

## O=c1cc(-c2ccccc2)oc2cc(O)c(O)c(O)c12 [Baicalein]
  Class (MPro activity class): 1 (Compounds with IC50 < 10 µM or with a percentage of enzyme inhibition >50% at 10 µM were labelled as ACTIVE)

## COc1cc2c(cc1Cc1cccc(Cl)c1F)c(=O)c(C(=O)O)cn2[C@H](CO)C(C)C [Elvitegravir]
  Class (MPro activity class): 0 (compounds with IC50 > 20 μM, percentage inhibition <80% at 20 µM or 50 μM, or percentage enzyme inhibition <50% at 10 µM were labelled as INACTIVE)

## CC(=O)c1cc([N+](=O)[O-])c(Sc2ccc(F)cc2F)s1 [P22077]
  Class (MPro activity class): 0 (compounds with IC50 > 20 μM, percentage inhibition <80% at 20 µM or 50 μM, or percentage enzyme inhibition <50% at 10 µM were labelled as INACTIVE)

## CC(C)CN(C[C@@H](O)[C@H](Cc1ccccc1)NC(=O)O[C@H]1CCOC1)S(=O)(=O)c1ccc(N)cc1 [Amprenavir]
  Class (MPro activity class): 0 (compounds with IC50 > 20 μM, percentage inhibition <80% at 20 µM or 50 μM, or percentage enzyme inhibition <50% at 10 µM were labelled as INACTIVE)

## CC(C)(C)NC(=O)C(c1cccnc1)N(C(=O)c1ccco1)c1ccc(C(C)(C)C)cc1 (centres unmarked) [ALP-POS-c59291d4-6]
  Class (MPro activity class): 1 (Compounds with IC50 < 10 µM or with a percentage of enzyme inhibition >50% at 10 µM were labelled as ACTIVE)

## C[C@@H]1O[C@@H](O[C@@H]2[C@@H](O)[C@H](OCCc3ccc(O)c(O)c3)O[C@H](CO)[C@H]2OC(=O)/C=C/c2ccc(O)c(O)c2)[C@H](O)[C@H](O)[C@H]1O [Acteoside]
  Class (MPro activity class): 0 (compounds with IC50 > 20 μM, percentage inhibition <80% at 20 µM or 50 μM, or percentage enzyme inhibition <50% at 10 µM were labelled as INACTIVE)

## O=c1[nH]cc(-c2cc(-c3cc(Cl)cc(OCc4c(F)cccc4F)c3)c(=O)n(-c3cccnc3)c2)c(=O)[nH]1 [compound 20]
  Class (MPro activity class): 1 (Compounds with IC50 < 10 µM or with a percentage of enzyme inhibition >50% at 10 µM were labelled as ACTIVE)

## O=c1[nH]cc(-c2cc(-c3cc(Cl)cc(OCc4ccc(F)cc4Cl)c3)c(=O)n(-c3cccnc3)c2)c(=O)[nH]1 [compound 22]
  Class (MPro activity class): 1 (Compounds with IC50 < 10 µM or with a percentage of enzyme inhibition >50% at 10 µM were labelled as ACTIVE)

## C[C@H]1C[C@@H]2[C@H]([C@@H](O)C[C@@]3(C)[C@H]2CC[C@]3(O)C(=O)CO)[C@@]2(C)C=CC(=O)C=C12 [methylprednisolone]
  Class (MPro activity class): 0 (compounds with IC50 > 20 μM, percentage inhibition <80% at 20 µM or 50 μM, or percentage enzyme inhibition <50% at 10 µM were labelled as INACTIVE)

## O=C(Nc1ccccc1)Nc1cnc2ccc([N+](=O)[O-])cc2n1 [LASSBio-1962 (8)]
  Class (MPro activity class): 0 (compounds with IC50 > 20 μM, percentage inhibition <80% at 20 µM or 50 μM, or percentage enzyme inhibition <50% at 10 µM were labelled as INACTIVE)

## C[C@@H]1CCN(C(=O)CC#N)C[C@@H]1N(C)c1ncnc2[nH]ccc12 [Tofacitinib]
  Class (MPro activity class): 0 (compounds with IC50 > 20 μM, percentage inhibition <80% at 20 µM or 50 μM, or percentage enzyme inhibition <50% at 10 µM were labelled as INACTIVE)

## cangrelor
  Class (MPro activity class): 0 (compounds with IC50 > 20 μM, percentage inhibition <80% at 20 µM or 50 μM, or percentage enzyme inhibition <50% at 10 µM were labelled as INACTIVE)

## O=C(c1cc(=O)[nH]c2ccccc12)N1CCN(Cc2ccccc2)CC1 [BEN-DND-7e92b6ca-10]
  Class (MPro activity class): 1 (Compounds with IC50 < 10 µM or with a percentage of enzyme inhibition >50% at 10 µM were labelled as ACTIVE)

## MLN9708
  Class (MPro activity class): 0 (compounds with IC50 > 20 μM, percentage inhibition <80% at 20 µM or 50 μM, or percentage enzyme inhibition <50% at 10 µM were labelled as INACTIVE)

## Forsythoside B
  Class (MPro activity class): 1 (Compounds with IC50 < 10 µM or with a percentage of enzyme inhibition >50% at 10 µM were labelled as ACTIVE)

## COc1ccccc1OCCNC(=O)c1cc(=O)[nH]c2ccccc12 [MAT-POS-916a2c5a-2]
  Class (MPro activity class): 1 (Compounds with IC50 < 10 µM or with a percentage of enzyme inhibition >50% at 10 µM were labelled as ACTIVE)

## O=C(CCl)N1CCN(S(=O)(=O)c2cccc(F)c2)CC1 [LON-WEI-8f408cad-4]
  Class (MPro activity class): 1 (Compounds with IC50 < 10 µM or with a percentage of enzyme inhibition >50% at 10 µM were labelled as ACTIVE)

## Cc1cc(Nc2cc(CN3CCOCC3)c3nc(C)c(Cc4ccc(Cl)cc4F)n3n2)n[nH]1 [GANDOTINIB]
  Class (MPro activity class): 0 (compounds with IC50 > 20 μM, percentage inhibition <80% at 20 µM or 50 μM, or percentage enzyme inhibition <50% at 10 µM were labelled as INACTIVE)

## N#Cc1cccc(C2CN(C(=O)CCl)Cc3ccccc32)c1 (centres unmarked) [NIR-THE-c331be7a-2]
  Class (MPro activity class): 1 (Compounds with IC50 < 10 µM or with a percentage of enzyme inhibition >50% at 10 µM were labelled as ACTIVE)

## O=C(NC(Cc1cc(=O)[nH]c2ccccc12)C(=O)O)c1ccc(Cl)cc1 (centres unmarked) [REBAMIPIDE]
  Class (MPro activity class): 0 (compounds with IC50 > 20 μM, percentage inhibition <80% at 20 µM or 50 μM, or percentage enzyme inhibition <50% at 10 µM were labelled as INACTIVE)

## O=C(C=Cc1ccc(O)c(O)c1)OC1CC(OC(=O)C=Cc2ccc(O)c(O)c2)(C(=O)O)CC(O)C1O (centres unmarked) [1,3-Dicaffeoylquinic acid]
  Class (MPro activity class): 0 (compounds with IC50 > 20 μM, percentage inhibition <80% at 20 µM or 50 μM, or percentage enzyme inhibition <50% at 10 µM were labelled as INACTIVE)

## O=C1c2c(O)cc(O)cc2O[C@H](c2cc(O)c(O)c(O)c2)[C@H]1O [Dihydromyricetin]
  Class (MPro activity class): 1 (Compounds with IC50 < 10 µM or with a percentage of enzyme inhibition >50% at 10 µM were labelled as ACTIVE)

## COc1cccc2[nH]c(C(=O)NC(CC(C)C)C(=O)NC(CC3CCNC3=O)C(=O)CO)cc12 (centres unmarked) [PF-00835231]
  Class (MPro activity class): 1 (Compounds with IC50 < 10 µM or with a percentage of enzyme inhibition >50% at 10 µM were labelled as ACTIVE)

## O=C(Cc1cccc(Cl)c1)Nn1cnc2ccccc2c1=O [JAN-GHE-5a013bed-3]
  Class (MPro activity class): 1 (Compounds with IC50 < 10 µM or with a percentage of enzyme inhibition >50% at 10 µM were labelled as ACTIVE)

## CCC[C@H](NC(=O)[C@@H]1[C@H]2CCC[C@H]2CN1C(=O)[C@@H](NC(=O)[C@@H](NC(=O)c1cnccn1)C1CCCCC1)C(C)(C)C)C(=O)C(=O)NC1CC1 [Telaprevir]
  Class (MPro activity class): 0 (compounds with IC50 > 20 μM, percentage inhibition <80% at 20 µM or 50 μM, or percentage enzyme inhibition <50% at 10 µM were labelled as INACTIVE)

## COc1cccc(N2CCN(C(=O)c3cc(=O)[nH]c4ccccc34)CC2)c1 [BEN-DND-7e92b6ca-12]
  Class (MPro activity class): 1 (Compounds with IC50 < 10 µM or with a percentage of enzyme inhibition >50% at 10 µM were labelled as ACTIVE)

## CC(NC(=O)C(Cc1ccccc1)NC(=O)OCc1ccccc1)C(=O)CF (centres unmarked) [Z-FA-FMK]
  Class (MPro activity class): 0 (compounds with IC50 > 20 μM, percentage inhibition <80% at 20 µM or 50 μM, or percentage enzyme inhibition <50% at 10 µM were labelled as INACTIVE)
